From patent US20240391882A1 (Mirati Therapeutics, Inc., priority 2023, published 2024)

Legend:
Format in all cases: cell-based
[1] = tested on: T47D (PI3Kα H1047R mutant) cells; experiment: Cell viability (CellTiter-Glo 2.0) in T47D cells; settings: Homo sapiens, T47D, 72 h, approximately 72 hours
In short: (§1)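 IC50 values derive from four-parameter fits of CellTiter-Glo luminescence expressed as percent of vehicle control. Cells (T47D or SKBR3) were plated at 1000/well the day before dosing and incubated about 72 h at 37° C with a 10-point, 1:4 series starting at 10 μm.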

[2] = tested on: pAKT in SKBR3 (PI3Kα wild type) cells; experiment: Inhibition of pAKT (alphaLISA Surefire Ultra AKT 1/2/3 pS473) in SKBR3 cells; settings: Homo sapiens, SK-BR-3, approximately 24 hours treatment, read-out: SKBR3 (WT) pAKT IC50
Experimental: The ability of a compound of Formula (I) to inhibit the formation of pAKT was measured using alphaLISA Surefire Ultra AKT 1/2/3 (pS473) Assay Kit (#ALSU-PAKT-B50K) was obtained from Perkin Elmer (Waltham, MA).
To prepare assay plates for pAKT alphaLISA assays, cells were trypsinized, resuspended in fresh media, and viable cells were counted utilizing trypan blue exclusion. Prior to seeding, cells were washed with PBS and resuspended in HBSS (Gibco, #14025092). T47D (12,000/w), SKBR3 (12,000/w), or MKN1 (24,000/w) cells were seeded at 12 μl per well in a solid white flat bottom 384 cell culture plate (Perkin Elmer #6007680).
Immediately after seeding, cells were dosed using an Echo Liquid Handler (Beckman Coulter) with compounds at a 10.4 μm starting concentration and serially diluted (1:4) for a total of 10 concentrations. […] Plates were then imaged the following day using a CLARIOstar microplate reader (BMG Labtech, Germany).
Percent of control values were calculated by subtracting the average signal from the positive control (alpelisib) treated wells from all treated wells (including DMSO control wells) and then divided by the average signal from the vehicle DMSO treated control wells. Percent of vehicle control values were plotted as log(inhibitor) vs. response—Variable slope (four parameters) for curve fitting and IC50 values were determined using XLfit.

[3] = tested on: SKBR3 (PI3Kα wild type) cells; experiment: Cell viability (CellTiter-Glo 2.0) in SKBR3 cells; settings: Homo sapiens, SK-BR-3; SKBR3 (PI3Kα wild type) cells, approximately 72 hours, CellTiter-Glo 2.0; read-out: SKBR3 (WT) Viability IC50
In short: as §1

[4] = tested on: pAKT in T47D (PI3Kα H1047R mutant) cells; experiment: Inhibition of pAKT (alphaLISA Surefire Ultra AKT 1/2/3 pS473) in T47D cells; settings: Homo sapiens; T47D (PI3Kα H1047R mutant) cells, 24 hr compound incubation, alphaLISA pS473; read-out: T47D (H1047R) pAKT 24 hr (IC50)
In short: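 AlphaLISA read-out of AKT pS473 in lysates after roughly 24 h compound exposure at 37° C in HBSS. Ten concentrations, 1:4 dilutions from a 10.4 μm top dose. Percent of control uses alpelisib at 3.125 μm as background and DMSO as vehicle; four-parameter curve gives IC50.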

SMILES	IC50 [1]	IC50 [2]	IC50 [3]	IC50 [4]
Cc1cc(C(C)Nc2ccccc2C(=O)O)c2nc(N3CCCCC3)c(C#N)nc2c1 (stereo not shown) [Example 1, 2-((1-(2-cyano-7-methyl-3-(piperidin-1-yl)quinoxalin-5-yl)ethyl)amino)benzoic acid]	0.456 µM	> 10 µM	> 10 µM	0.039 µM
Cc1cc([C@@H](C)Nc2ccc(Cl)nc2C(=O)O)c2nc(N3CC4(CC(O)C4)C3)c(C#N)nc2c1 [Example 259, (R)-6-chloro-3-((1-(2-cyano-3-(6-hydroxy-2-azaspiro[3.3]heptan-2-yl)-7-methylquinoxalin-5-yl)ethyl)amino)picolinic acid]	0.075 µM	–	> 10 µM	0.0015 µM
COC1(C)CN(c2nc3c([C@@H](C)Nc4ccccc4C(=O)O)cc(C)cc3nc2C#N)C1 [Example 63, (R)-2-((1-(2-cyano-3-(3-methoxy-3-methylazetidin-1-yl)-7-methylquinoxalin-5-yl)ethyl)amino)benzoic acid]	0.254 µM	–	9.81 µM	0.0165 µM
Cc1cc([C@@H](C)Nc2ccc(Cl)nc2C(=O)O)c2nc(N3CCC4(CC3)C(F)(F)C4(F)F)c(C#N)nc2c1 [Example 82, (R)-6-chloro-3-((1-(2-cyano-7-methyl-3-(1,1,2,2-tetrafluoro-6-azaspiro[2.5]octan-6-yl)quinoxalin-5-yl)ethyl)amino)picolinic acid]	0.121 µM	–	5.03 µM	0.0045 µM
Cc1cc([C@@H](C)Nc2ccc(Cl)nc2C(=O)O)c2nc(NCC3(F)CC3)c(C#N)nc2c1 [Example 23, (R)-6-chloro-3-((1-(2-cyano-3-(((1-fluorocyclopropyl)methyl)amino)-7-methylquinoxalin-5-yl)ethyl)amino)picolinic acid]	0.0619 µM	–	> 10 µM	0.0007 µM
Cc1cc([C@@H](C)Nc2ccc(Cl)nc2C(=O)O)c2nc(N3CC4CC(C3)C4(F)F)c(C#N)nc2c1 [Example 7, 6-chloro-3-(((1R)-1-(2-cyano-3-(6,6-difluoro-3-azabicyclo[3.1.1]heptan-3-yl)-7-methylquinoxalin-5-yl)ethyl)amino)picolinic acid]	0.0598 µM	–	> 10 µM	0.0008 µM
